The results in this text go back to paper PMC6149814, “Enhanced Intestinal Permeability of Bufalin by a Novel Bufalin-Peptide-Dendrimer Inclusion through Caco-2 Cell Monolayer” (Molecules : A Journal of Synthetic Chemistry and Natural …, 2017).

Data set [1] in a line: Cytotoxicity in Caco-2 cells by MTT assay. It counts as cell-based. The settings on record: human. How it is done: The viability of Caco-2 cells were measured after treated for 180 min with Hanks’ balanced salts solution (HBSS) (negative control), paclitaxel (positive control, 25, 50, 75 and 100 μM), BFL (50, 75, 100 and 125 μM) and BPDI (containing BFL 50, 75, 100 and 125 μM), respectively.
The cytotoxicities of free BFL and its formulation, BPDI against Caco-2 cells were tested using the 3-(4,5-dimethylthiazol-2-yl)-2,5-diphenyltetrazolium bromide (MTT) assay. Caco-2 cells at the logarithmic growth were seeded in 96-well plate at the concentration of […] and incubated in an atmosphere of 5% CO2 and 90% relative humidity at 37 °C for three days. After cells attachment, HBSS solution (negative control), paclitaxel (positive control, 25, 50, 75, and 100 μM), BFL (50, 75, 100, and 125 μM), and BPDI (containing BFL 50, 75, 100, and 125 μM) solutions were added into each well, respectively. After cells were treated for three hours, HBSS solution was removed, and cells were rinsed with PBS and incubated with 20 μL of MTT solution (0.5 mg/mL) for 4 h at 37°C and 5% CO2. Then the cells were shaken with 200 μL of DMSO for 10 min, and the absorbance was read on the microplate reader (SPECTROstar Omega, BMG LabTech GmbH, Ortenberg, Germany) at 570 nm. The viability rates were calculated by the equation: % = A/A0 × 100, wherein A was the average absorbance value of treatment group, and A0 was the average absorbance value of negative control group.
In general terms: Formazan colour is commonly taken as a measure of viable cells.

For data set [2], the system named is Caco-2 cell monolayer. As to the kind of experiment: in vitro. How it is done:
(§1) Caco-2 cells (4.0 × 10^5 per mL) at the logarithmic growth were seeded into the AP (apical) side of a 24-well Transwell™ plates (Corning Inc., Cambridge, MA, USA). DMEM solution was added into the apical (AP) side (0.5 mL) and basal (BL) side (1.0 mL) of the chamber, respectively. The cell culture was maintained at 37 °C under 90% humidity and 5% CO2. The medium was refreshed every two days in the first week, and then on every day the following week. […] The cell inserts were considered as qualified for trans-membrane transport evaluation only if the resistance reached above […].
(§2) On day 21, the culture medium was removed from the AP and BL sides of the trans-well filters. The Caco-2 monolayers were rinsed twice with pre-warmed HBSS (37 °C) and incubated for 20 min. Then HBSS was removed completely. The test solution of BFL or BPDI (was added to AP (0.4 mL) or BL side (3.2 mL), and then same volume of HBSS was added to the corresponding sides (BL or AP sides). Incubation continued at 37 °C for 180 min. To evaluate the permeability of test compounds across the cell monolayer, solutions from BL (0.4 mL) or AP (3.2 mL) side were collected at different time intervals (60, 120, and 180 min), and replaced with the same volume of HBSS. The collected solutions were lyophilized and stored under −80 °C before HPLC analysis. Experiments for each time point were repeated three times and were performed on the independent chamber.
(§3) Chromatographic analysis was performed using a Alltima TM C18 column (4.6× 250 mm, 5 μm) on an Agilent 1200 liquid chromatography system, equipped with a quaternary solvent delivery system, an auto-sampler and a DAD detector. The isocratic eluting solution consists of A: 0.2% phosphoric acid and B: acetonitrile (54:46, v/v); the detection wavelength and flow rate were set at 226 nm and 1.0 mL/min, respectively. The HPLC analysis will be run for 25 min.
(§4) Apparent permeability values (Papp) for the test compound was calculated according to the equation [22] Papp = (dQ/dt)/(AC0) where Papp is the apparent permeability (cm/s), dQ/dt is the appearance rate of the test compound on the receiver side (μg/s), A represents the surface area of carbon ester membrane (cm^2), and C0 is the initial concentration of compounds on the given sides (μg/L).

Data set [3] is described as follows: in vitro. The settings on record: human. As for the experimental part:
as §1, §2, §3, §4

Consider `CC(=O)O[C@H]1C(=O)[C@@]2(C)[C@H]([C@H](OC(=O)c3ccccc3)[C@]3(O)C[C@H](OC(=O)[C@H](O)[C@@H](NC(=O)c4ccccc4)c4ccccc4)C(C)=C1C3(C)C)[C@]1(OC(C)=O)CO[C@@H]1C[C@@H]2O` [Paclitaxel, paclitaxel], for which, in data set [1] (Caco-2 cells, 25 μM, 180 min, MTT), the viability at 25 µM came out at 65.3 ± 7.2%. The viability came out at 43.5 ± 5.4% in data set [1] (Caco-2 cells, 50 μM (BPDI: containing BFL 50 μM), 180 min, MTT); 34.8 ± 3.2% in data set [1] (Caco-2 cells, 75 μM (BPDI: containing BFL 75 μM), 180 min, MTT); 30.5 ± 2.6% in data set [1] (Caco-2 cells, 100 μM (BPDI: containing BFL 100 μM), 180 min, MTT).
Take `C[C@]12CC[C@H](O)C[C@H]1CC[C@@H]1[C@@H]2CC[C@]2(C)[C@@H](c3ccc(=O)oc3)CC[C@]12O` [BFL, Bufalin]: in data set [1] (Caco-2 cells, 50 μM (BPDI: containing BFL 50 μM), MTT), the viability at 180 min, 50 μM worked out at 102 ± 7.2%. The viability at 180 min, 75 μM in data set [1] (Caco-2 cells, 75 μM (BPDI: containing BFL 75 μM), MTT) worked out at 100 ± 8.6%. Further, the viability at 180 min, 100 μM in data set [1] (Caco-2 cells, 100 μM (BPDI: containing BFL 100 μM), MTT) stood at 99.1 ± 8.5%. Moreover, the viability at 180 min, 125 μM in data set [1] (Caco-2 cells, 125 μM (BPDI: containing BFL 125 μM), MTT) is 98.9 ± 6.4%. Besides, the viability at 180 min in data set [1] (Caco-2 cells, 50, 75, 100 and 125 μM, read-out: viabilities after treatment) was above 95%. Further, the main transport mechanism result in data set [2] (Caco-2 monolayer) is given as “passive diffusion”. Besides, in data set [2] (due to a Papp value of 1–10 × 10^−6 cm/s), the transport classification result is recorded as “moderate transport”. Besides, the Papp A→B (commonly how fast a substance crosses the layer from the apical side) at 120 min, 50 μM in data set [3] (Caco-2, Papp AP→BL, 50 μM, 120 min, concentration series (Table 2), n = 3) came out at 1.58 ± 0.32 ×10⁻⁶ cm/s. For the same compound, the Papp A→B at 60 min, 75 μM in data set [3] (Caco-2, Papp AP→BL, 75 μM, 60 min, time course (Table 3), n = 3) is 1.52 ± 0.22 ×10⁻⁶ cm/s. The Papp A→B at 120 min, 75 μM in data set [3] (Caco-2, Papp AP→BL, 75 μM, 120 min, concentration series (Table 2), n = 3) was determined as 1.47 ± 0.08 ×10⁻⁶ cm/s; in data set [3] (Caco-2, Papp AP→BL, 75 μM, 120 min, time course (Table 3), n = 3), 1.36 ± 0.08 ×10⁻⁶ cm/s. The Papp A→B at 180 min, 75 μM in data set [3] (Caco-2, Papp AP→BL, 75 μM, 180 min, time course (Table 3), n = 3) was determined as 1.28 ± 0.02 ×10⁻⁶ cm/s. Besides, the Papp A→B at 120 min, 100 μM in data set [3] (Caco-2, Papp AP→BL, 100 μM, 120 min, concentration series (Table 2), n = 3) stood at 1.46 ± 0.02 ×10⁻⁶ cm/s. The compound also yielded a Papp A→B at 120 min, 125 μM in data set [3] (Caco-2, Papp AP→BL, 125 μM, 120 min, concentration series (Table 2), n = 3) of 1.64 ± 0.12 ×10⁻⁶ cm/s. Further, the Papp B→A (in general, the apparent permeability from the basolateral to the apical side of a cell layer) at 120 min, 50 μM in data set [3] (Caco-2, Papp BL→AP, 50 μM, 120 min, concentration series (Table 2), n = 3) was found to be 1.37 ± 0.18 ×10⁻⁶ cm/s. The compound further displayed a Papp B→A at 60 min, 75 μM in data set [3] (Caco-2, Papp BL→AP, 75 μM, 60 min, time course (Table 3), n = 3) of 1.14 ± 0.28 ×10⁻⁶ cm/s. Moreover, the Papp B→A at 120 min, 75 μM in data set [3] (Caco-2, Papp BL→AP, 75 μM, 120 min, concentration series (Table 2), n = 3) was 1.32 ± 0.14 ×10⁻⁶ cm/s; in data set [3] (Caco-2, Papp BL→AP, 75 μM, 120 min, time course (Table 3), n = 3), 1.08 ± 0.17 ×10⁻⁶ cm/s. Besides, in data set [3] (Caco-2, Papp BL→AP, 75 μM, 180 min, time course (Table 3), n = 3), the Papp B→A at 180 min, 75 μM came out at 0.99 ± 0.12 ×10⁻⁶ cm/s. In addition, the Papp B→A at 120 min, 100 μM in data set [3] (Caco-2, Papp BL→AP, 100 μM, 120 min, concentration series (Table 2), n = 3) was 1.29 ± 0.1 ×10⁻⁶ cm/s. Also, the Papp B→A at 120 min, 125 μM in data set [3] (Caco-2, Papp BL→AP, 125 μM, 120 min, concentration series (Table 2), n = 3) turned out to be 1.35 ± 0.45 ×10⁻⁶ cm/s. For the same compound, the Papp – broadly, the rate of passage across a membrane or cell layer, normalised by area and donor concentration – was 1.46 to 1.62 ×10⁻⁶ cm/s in data set [3] (Caco-2, Papp value (range over concentrations/times, text), summary of Table 2 and Table 3); above 1 ×10⁻⁶ cm/s in data set [3] (Caco-2, apparent permeability coefficient (Papp) values (abstract), BFL in free or BPDI form).
